Drawing on ChEMBL document CHEMBL1201862, “PubChem BioAssay data set” (2004), this text covers IC50, EC50 and AC50 for four compounds.

Structures are written as SMILES. Activity calls are given as the source filed them. A value given as a limit tells only on which side of the number the result lay.

For experiment [1], the target named is Melanocortin receptor 4 (Homo sapiens, UniProt P32245). Put plainly: inhibitors of MC4R cAMP signaling – cell-based, TR-FRET, biased antagonists, dose response (AID 602298).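 Further: antagonist potency against agonist-stimulated cAMP production.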 The experiment is classed as functional.
Experiment [2] is described as follows: DRD fibroblast viability loss – cell-based, non-viral oncogenic, luminescence, dose response (AID 1934). The experiment is classed as functional. Particulars: Homo sapiens.
A short description of experiment [3]: Luminescence-based cell-based high throughput dose response assay to identify activators of the DAF-12 from the parasite S. stercoralis (ssDAF-12). The class given is functional.
Experiment [4] addresses T1, Sentrin-specific protease 7 (Homo sapiens, UniProt Q9BQF6).
T1 sequence (Q9BQF6 whole entry): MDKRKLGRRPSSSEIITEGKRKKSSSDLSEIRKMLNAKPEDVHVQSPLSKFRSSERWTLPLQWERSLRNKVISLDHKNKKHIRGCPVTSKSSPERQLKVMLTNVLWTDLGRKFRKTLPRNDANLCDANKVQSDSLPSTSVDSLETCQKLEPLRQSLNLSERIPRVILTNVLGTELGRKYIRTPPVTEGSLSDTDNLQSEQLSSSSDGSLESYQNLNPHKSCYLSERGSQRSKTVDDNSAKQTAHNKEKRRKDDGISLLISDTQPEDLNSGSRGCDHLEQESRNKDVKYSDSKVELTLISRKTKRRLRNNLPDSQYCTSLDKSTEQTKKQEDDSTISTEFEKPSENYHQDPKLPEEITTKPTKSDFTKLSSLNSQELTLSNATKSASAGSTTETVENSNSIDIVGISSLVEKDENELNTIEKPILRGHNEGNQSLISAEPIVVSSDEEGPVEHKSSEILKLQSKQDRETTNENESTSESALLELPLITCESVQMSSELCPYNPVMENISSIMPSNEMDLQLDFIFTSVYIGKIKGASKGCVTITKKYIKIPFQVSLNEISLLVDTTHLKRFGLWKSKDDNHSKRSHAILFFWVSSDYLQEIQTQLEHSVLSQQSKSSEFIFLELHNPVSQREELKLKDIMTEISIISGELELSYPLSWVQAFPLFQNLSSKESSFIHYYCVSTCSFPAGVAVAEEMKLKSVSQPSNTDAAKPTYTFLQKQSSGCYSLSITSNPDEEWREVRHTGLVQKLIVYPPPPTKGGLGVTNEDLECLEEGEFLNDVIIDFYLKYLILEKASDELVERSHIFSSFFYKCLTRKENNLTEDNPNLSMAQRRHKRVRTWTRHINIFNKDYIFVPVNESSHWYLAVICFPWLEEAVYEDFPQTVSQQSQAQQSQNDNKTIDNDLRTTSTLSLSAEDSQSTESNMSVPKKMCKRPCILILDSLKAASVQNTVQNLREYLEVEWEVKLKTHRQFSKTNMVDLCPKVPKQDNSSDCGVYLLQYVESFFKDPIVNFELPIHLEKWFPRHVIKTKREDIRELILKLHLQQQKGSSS
Put plainly: inhibition of human SENP7 cleavage activity – biochemical, luminescence, SAR follow-up (AID 504497). The experiment is classed as functional.

Experiment [5] has as its target T2, Histone-lysine N-methyltransferase NSD2 (Homo sapiens, UniProt O96028).
T2 sequence (O96028 whole entry): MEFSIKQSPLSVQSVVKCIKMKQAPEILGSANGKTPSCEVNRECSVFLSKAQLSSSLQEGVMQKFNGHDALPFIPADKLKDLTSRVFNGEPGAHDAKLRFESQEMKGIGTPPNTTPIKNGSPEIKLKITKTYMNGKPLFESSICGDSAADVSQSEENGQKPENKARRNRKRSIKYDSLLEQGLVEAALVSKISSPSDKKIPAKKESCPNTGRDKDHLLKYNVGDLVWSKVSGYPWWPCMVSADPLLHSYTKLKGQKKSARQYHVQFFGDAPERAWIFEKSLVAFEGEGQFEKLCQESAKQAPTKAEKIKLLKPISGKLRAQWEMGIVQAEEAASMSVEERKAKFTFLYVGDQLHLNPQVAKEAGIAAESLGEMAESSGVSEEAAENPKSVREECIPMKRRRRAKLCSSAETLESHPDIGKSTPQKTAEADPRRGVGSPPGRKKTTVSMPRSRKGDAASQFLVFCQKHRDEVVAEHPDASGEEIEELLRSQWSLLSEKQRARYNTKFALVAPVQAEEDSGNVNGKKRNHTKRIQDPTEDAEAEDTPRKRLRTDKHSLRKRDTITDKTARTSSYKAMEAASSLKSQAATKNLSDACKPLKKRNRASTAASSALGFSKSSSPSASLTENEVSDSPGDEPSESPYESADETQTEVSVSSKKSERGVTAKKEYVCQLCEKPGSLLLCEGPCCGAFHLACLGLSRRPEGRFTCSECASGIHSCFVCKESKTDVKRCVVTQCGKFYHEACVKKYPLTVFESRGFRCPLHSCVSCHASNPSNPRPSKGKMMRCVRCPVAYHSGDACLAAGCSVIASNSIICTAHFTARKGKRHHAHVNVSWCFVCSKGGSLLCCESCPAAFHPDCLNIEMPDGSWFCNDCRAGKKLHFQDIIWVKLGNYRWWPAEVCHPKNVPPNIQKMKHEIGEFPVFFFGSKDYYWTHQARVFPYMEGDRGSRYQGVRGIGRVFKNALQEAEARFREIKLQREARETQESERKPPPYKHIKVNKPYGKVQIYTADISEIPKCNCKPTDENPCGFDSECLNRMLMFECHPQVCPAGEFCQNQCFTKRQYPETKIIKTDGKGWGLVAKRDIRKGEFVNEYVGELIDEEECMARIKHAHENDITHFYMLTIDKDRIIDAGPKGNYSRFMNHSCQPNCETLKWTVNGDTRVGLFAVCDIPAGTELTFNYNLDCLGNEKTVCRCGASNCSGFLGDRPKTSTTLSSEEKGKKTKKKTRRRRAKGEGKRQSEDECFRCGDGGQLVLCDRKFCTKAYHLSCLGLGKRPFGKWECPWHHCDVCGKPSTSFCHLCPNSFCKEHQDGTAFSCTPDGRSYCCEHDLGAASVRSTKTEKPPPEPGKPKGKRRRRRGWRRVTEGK
The class given is biochemical.

Experiment [6] addresses Genome polyprotein (dengue virus type 2, UniProt P29990). Put plainly: flavivirus cap methylation enzyme inhibition – biochemical, confirmation dose response, primary screen (AID 588689). The class given is functional.

Melanocortin receptor 4, sequence (P32245 whole entry): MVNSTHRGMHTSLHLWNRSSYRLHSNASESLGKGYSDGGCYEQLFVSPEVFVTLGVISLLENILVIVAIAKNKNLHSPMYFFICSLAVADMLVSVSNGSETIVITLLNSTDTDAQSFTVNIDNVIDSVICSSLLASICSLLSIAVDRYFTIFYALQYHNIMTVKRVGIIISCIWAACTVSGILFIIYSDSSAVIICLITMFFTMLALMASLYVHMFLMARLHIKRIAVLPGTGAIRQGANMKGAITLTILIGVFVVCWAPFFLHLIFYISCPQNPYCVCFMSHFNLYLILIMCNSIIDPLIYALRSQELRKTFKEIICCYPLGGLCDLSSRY
Genome polyprotein, sequence (P29990 2492-3391 limits assumed): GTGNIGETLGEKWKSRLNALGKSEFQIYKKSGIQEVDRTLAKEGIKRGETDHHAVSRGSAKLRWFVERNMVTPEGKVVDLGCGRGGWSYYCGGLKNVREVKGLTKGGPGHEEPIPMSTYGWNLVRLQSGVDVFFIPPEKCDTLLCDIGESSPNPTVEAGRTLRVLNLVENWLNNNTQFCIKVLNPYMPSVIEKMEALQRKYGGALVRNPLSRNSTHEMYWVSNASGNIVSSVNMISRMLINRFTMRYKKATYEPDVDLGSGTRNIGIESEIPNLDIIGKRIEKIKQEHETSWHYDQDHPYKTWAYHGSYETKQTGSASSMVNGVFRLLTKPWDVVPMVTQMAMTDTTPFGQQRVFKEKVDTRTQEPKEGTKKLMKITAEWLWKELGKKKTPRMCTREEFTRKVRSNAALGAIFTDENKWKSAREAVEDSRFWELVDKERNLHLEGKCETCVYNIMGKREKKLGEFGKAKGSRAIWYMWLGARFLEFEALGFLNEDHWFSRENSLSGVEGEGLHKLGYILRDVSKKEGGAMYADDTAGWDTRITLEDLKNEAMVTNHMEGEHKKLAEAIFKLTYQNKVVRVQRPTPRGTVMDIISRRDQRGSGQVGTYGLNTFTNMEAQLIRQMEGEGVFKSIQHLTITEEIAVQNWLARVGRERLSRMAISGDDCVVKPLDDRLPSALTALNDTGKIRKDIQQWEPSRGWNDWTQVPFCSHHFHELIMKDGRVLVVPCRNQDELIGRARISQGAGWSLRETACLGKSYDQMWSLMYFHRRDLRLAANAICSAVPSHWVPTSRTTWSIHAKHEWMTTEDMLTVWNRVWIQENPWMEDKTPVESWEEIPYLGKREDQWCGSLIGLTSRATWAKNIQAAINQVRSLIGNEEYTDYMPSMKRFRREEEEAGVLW

As usually defined, the IC50 is the concentration that gives 50% inhibition. What is called EC50 is the concentration needed to bring the measured effect to its halfway point. For `Cc1nn(-c2ccccc2)c(Cl)c1CN(C(=O)CCl)c1ccc(Cl)cc1`, the IC50 in experiment [1] was > 64.6 µM (inactive). Further, the EC50 in experiment [2] was 1.92 µM (active).

In the case of `Oc1ccccc1/C=C/c1noc(-c2ccccc2O)n1`, the IC50 was > 67.6 µM (inactive) in experiment [3] and 2.5 µM (active) in experiment [4].

A word on the AC50: it is the midpoint of the concentration-response curve, whichever way the signal moves. For the compound `Cc1cccc(N=Nc2ccc(N(C)C)cc2)c1`, the AC50 in experiment [5] is 14.2 µM (active).

In the case of `O=C(O)CSc1cc(NS(=O)(=O)c2ccc(Cl)cc2)c2ccccc2c1O`, in experiment [6], the IC50 was 7.15 µM (active).
